Entries after “also recorded” stand apart in the source; their conditions may differ.
Key:
[1] = biological target: Bcl-xL (Homo sapiens, UniProt Q07817); assay: Fluorescence polarization (FP) binding assay, Bcl-xL
Experimental: (§1) FIGS. 3A-3B show binding affinity to Bcl-xL, Bcl-2 and Mcl-1 determined by FP assay. FIG. 3A: compounds 1-9 mimicking BH3 peptides of proapoptotic proteins (scaffold I). FIG. 3B: Bim-mimicking compounds 10-16 derived from scaffolds II-VIII.
(§2) Their binding affinities on Bcl-xL, Bcl-2, and Mcl-1 were determined by fluorescence polarization (FP) assays (FIG. 3A). […] The role of carboxylic acids at both ends of compound 1 was also studied.

[2] = biological target: Bcl-2 (Homo sapiens, UniProt P10415); assay: Fluorescence polarization (FP) binding assay, Bcl-2
Experimental: as §1, §2

[3] = biological target: Mcl-1 (Homo sapiens, UniProt Q07820); assay: Fluorescence polarization (FP) binding assay, Mcl-1
Experimental: as §1, §2

[4] = tested on: PC3 cells; assay: Mitochondrial membrane depolarization, JC-1 staining; type: cell-based
Experimental: FIGS. 5A-5F show cellular activity of mimetics 1, 14, and 23. FIG. 5A: effect of mimetics on the interaction between Bak and antiapoptotic proteins. PC3 cells were incubated in the presence or absence of mimetics (10 μM) for 24 h and cell lysates were analyzed by immunoprecipitation followed by western blotting. FIG. 5B: mitochondrial membrane depolarization by mimetics. PC3 cells that were treated with mimetics, ABT737 or MIM1 were stained with JC-1 dye and analyzed for change in red to green fluorescence intensity ratio of JC-1 dye. FIG. 5C: activation of caspase-3/-9 by mimetics. PC3 cells were treated with different concentrations of mimetics, ABT737, and MIM1 for 24 h and activities of caspase-3/-9 were measured using caspase-specific colorimetric assay kits. FIG. 5D: downregulation of Mcl-1 by siRNA. PC3 cells were transfected with Mcl-1 siRNA (30 μmol) or control siRNA (30 μmol) for 24 h and cell lysates were analyzed by western blotting. […] PC3 cells were treated with mimetics (10 μM) or MIM1 (10 μM) for 24 h and cell viability was determined using MTT assay.
These compounds were examined for their capabilities of inducing apoptosis. […] The formation of pores on the outer mitochondrial membrane and the resulting change in mitochondrial membrane potential were determined by JC-1 staining. […] The anti-proliferative activity was also evaluated using MTT assay in prostate cancer cells.

[5] = tested on: PC3 cells; assay: MTT anti-proliferative assay, PC3; type: cell-based; conditions: for cell growth inhibition: 10 μM, 24 h, MTT
Experimental: (§3) FIGS. 5A-5F show cellular activity of mimetics 1, 14, and 23. FIG. 5A: effect of mimetics on the interaction between Bak and antiapoptotic proteins. PC3 cells were incubated in the presence or absence of mimetics (10 μM) for 24 h and cell lysates were analyzed by immunoprecipitation followed by western blotting. FIG. 5B: mitochondrial membrane depolarization by mimetics. PC3 cells that were treated with mimetics, ABT737 or MIM1 were stained with JC-1 dye and analyzed for change in red to green fluorescence intensity ratio of JC-1 dye. FIG. 5C: activation of caspase-3/-9 by mimetics. PC3 cells were treated with different concentrations of mimetics, ABT737, and MIM1 for 24 h and activities of caspase-3/-9 were measured using caspase-specific colorimetric assay kits. FIG. 5D: downregulation of Mcl-1 by siRNA. PC3 cells were transfected with Mcl-1 siRNA (30 μmol) or control siRNA (30 μmol) for 24 h and cell lysates were analyzed by western blotting. FIG. 5E: effect of Mcl-1 knockdown on mimetics-induced caspase activation. Same as for C except for the use of Mcl-1 knockdown PC3 cells. FIG. 5F: effect of Mcl-1 knockdown on mimetics-induced cell growth. PC3 cells were treated with mimetics (10 μM) or MIM1 (10 μM) for 24 h and cell viability was determined using MTT assay.
(§4) These compounds were examined for their capabilities of inducing apoptosis. When effectors are released from anti-apoptotic proteins, they form pores on the outer mitochondrial membrane, leading to mitochondrial outer membrane permeabilization (MOMP) and cytochrome c release which promote caspase activation. The formation of pores on the outer mitochondrial membrane and the resulting change in mitochondrial membrane potential were determined by JC-1 staining. […] The anti-proliferative activity was also evaluated using MTT assay in prostate cancer cells.
(§5) Its specificity to Mcl-1 on prostate cancer cells with Mcl-1 silenced by siRNA (FIG. 5D) was further investigated. Compound 23 induced up to 3-fold increase in caspase-3/-9 activity in untransfected and control-transfected PC3 cells. Knockdown of Mcl-1, however, decreased the M161-induced caspase activity to the basal level (FIG. 5E). In MTT assay, 23 inhibited cell growth by 64% and 62% in untransfected and control-transfected PC3 cells, respectively.

[6] = tested on: caspase-3/-9; assay: Caspase-3/-9 colorimetric activity assay in PC3 cells; type: cell-based; conditions: for caspase-9/-3 activity (in words): PC3 cells, different concentrations, 24 h
Experimental: as §3, §4, §5

[7] = biological target: T1, interaction of Bak with Mcl-1 (Homo sapiens, UniProt Q07820); assay: Co-immunoprecipitation in PC3 cells, Bak/Mcl-1; type: cell-based; conditions: 10 μM, 24 h, immunoprecipitation and western blotting
T1 construct: endogenous in cells; host or cells: PC3 cells
Experimental: as §3, with “assay. […]” for “assay.”

[8] = tested on: DU145 cells; assay: MTT anti-proliferative assay, DU145; type: cell-based; conditions: Homo sapiens, DU-145, read-out: IC50, cell growth
Experimental: as §4

[9] = biological target: T2, interaction of Bak with Bcl-2 (Homo sapiens, UniProt P10415); assay: Co-immunoprecipitation in PC3 cells, Bak/Bcl-2; type: cell-based; conditions: 10 μM, 24 h, immunoprecipitation and western blotting
T2 construct: endogenous in cells; host or cells: PC3 cells
Experimental: as §3, with “assay. […]” for “assay.”

[10] = tested on: LNCaP cells; assay: MTT anti-proliferative assay, LNCaP; type: cell-based; conditions: Homo sapiens, read-out: IC50, cell growth
Experimental: as §4

[11] = biological target: T3, interaction of Bak with Bcl-xL (Homo sapiens, UniProt Q07817); assay: Co-immunoprecipitation in PC3 cells, Bak/Bcl-xL; type: cell-based; conditions: 10 μM, 24 h, immunoprecipitation and western blotting
T3 construct: endogenous in cells; host or cells: PC3 cells
Experimental: as §3, with “assay. […]” for “assay.”

Chain of Mcl-1 (Q07820 whole entry): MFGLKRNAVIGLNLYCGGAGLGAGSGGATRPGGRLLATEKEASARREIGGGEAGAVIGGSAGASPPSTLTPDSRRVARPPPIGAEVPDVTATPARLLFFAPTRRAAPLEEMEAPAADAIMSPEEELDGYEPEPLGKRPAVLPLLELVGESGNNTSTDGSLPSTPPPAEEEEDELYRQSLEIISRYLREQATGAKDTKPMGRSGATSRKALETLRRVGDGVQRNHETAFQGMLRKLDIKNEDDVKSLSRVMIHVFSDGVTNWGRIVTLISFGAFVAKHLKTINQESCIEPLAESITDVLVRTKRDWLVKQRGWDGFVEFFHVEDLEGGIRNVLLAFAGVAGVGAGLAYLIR
Chain of Bcl-xL (Q07817 whole entry): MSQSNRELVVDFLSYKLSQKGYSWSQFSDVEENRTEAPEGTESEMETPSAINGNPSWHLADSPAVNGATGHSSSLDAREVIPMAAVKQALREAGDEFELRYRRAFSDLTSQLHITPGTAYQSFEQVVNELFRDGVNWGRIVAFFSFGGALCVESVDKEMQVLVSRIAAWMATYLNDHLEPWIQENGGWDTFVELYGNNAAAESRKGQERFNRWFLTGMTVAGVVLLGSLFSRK
Chain of Bcl-2 (P10415 whole entry): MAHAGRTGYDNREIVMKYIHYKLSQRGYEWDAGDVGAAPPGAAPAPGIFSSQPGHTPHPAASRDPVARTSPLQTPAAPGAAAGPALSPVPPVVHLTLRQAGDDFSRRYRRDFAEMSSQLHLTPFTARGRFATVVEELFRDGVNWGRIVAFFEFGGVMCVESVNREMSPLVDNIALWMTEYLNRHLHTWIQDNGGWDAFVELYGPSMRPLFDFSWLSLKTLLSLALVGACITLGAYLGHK
T1 sequence (Q07820 whole entry): as the sequence (Q07820 whole entry) above
T3 sequence (Q07817 whole entry): as the sequence (Q07817 whole entry) above
T2 sequence (P10415 whole entry): as the sequence (P10415 whole entry) above

SMILES	binding affinity to Bcl-xL (in words) [1]	binding affinity to Bcl-2 (in words) [2]	binding affinity to Mcl-1 (in words) [3]	further results
CCCCCOc1cc(-c2ccc(C(=O)Nc3ccc(C(=O)O)cc3OC(C)CC)c(OCCC(C)C)c2)ccc1C(=O)Nc1ccc(C(=O)O)cc1OCC(C)C (stereo not shown) [Compound 2]	low affinity	high affinity	low affinity	
CCCCOc1cc(C(=O)O)ccc1NC(=O)c1ccc(-c2ccc(C(=O)Nc3ccc(C(=O)O)cc3OC(C)CC)c(OCCC(C)C)c2)cc1OCC(C)C (stereo not shown) [Compound 3]	no inhibition	no inhibition	no inhibition	
CCC(C)COc1cc(-c2ccc(C(=O)Nc3ccc(C(=O)O)c(OC(C)CC)c3)c(OCCC(C)C)c2)ccc1C(=O)Nc1ccc(C(=O)O)cc1OCc1ccccc1 (stereo not shown) [Compound 10]	lost affinity	maintaining affinity	maintaining affinity	
CCC(C)COc1cc(-c2ccc(C(=O)Nc3ccc(C(=O)O)cc3OC(C)C)c(OCCC(C)C)c2)ccc1C(=O)Nc1ccc(C(=O)O)cc1OC(C)CC (stereo not shown) [Compound 5]	negligible affinity; also recorded: not to Bcl-xL			
CCCCCOc1cc(-c2ccc(C(=O)Nc3ccc(C(=O)O)cc3OCc3ccc(F)cc3)c(OCCC(C)C)c2)ccc1C(=O)Nc1ccc(C(=O)O)cc1OCc1ccccc1 [Compound 6]	did not bind	did not bind	did not bind	
CCC(C)Oc1cc(C(=O)O)ccc1NC(=O)c1ccc(-c2ccc(C(=O)Nc3ccc(C(=O)O)cc3OC(C)CC)c(OC(C)CC)c2)cc1OCCC(C)C (stereo not shown) [Compound 20]	negligible binding		negligible binding	IC50 [2]: 340 nM
CCC(C)COc1cc(-c2ccc(C(=O)Nc3ccc(C(=O)O)cc3OCC(C)C)c(OCCC(C)C)c2)ccc1C(=O)Nc1ccc(C(=O)O)cc1OCC(C)C (stereo not shown) [Compound 4]		very selective for inhibiting Bcl-2 over Bcl-xL and Mcl-1		
CCC(C)COc1cc(-c2ccc(C(=O)Nc3ccc(C(=O)O)cc3OC(C)CC)cc2OCCC(C)C)ccc1C(=O)Nc1ccc(C(=O)O)c(OCc2ccccc2)c1 (stereo not shown) [Compound 13]	substantially increased its affinity to Bcl-xL and Bcl-2 compared to Mcl-1	substantially increased its affinity to Bcl-xL and Bcl-2 compared to Mcl-1		
CCC(C)COc1cc(-c2ccc(C(=O)Nc3ccc(C(=O)O)c(OC(C)CC)c3)c(OCCC(C)C)c2)ccc1C(=O)Nc1ccc(C(=O)O)c(OCc2ccccc2)c1 (stereo not shown) [Compound 11]	selectivity for Bcl-xL and Bcl-2	selectivity for Bcl-xL and Bcl-2		
CCC(C)COc1cc(-c2ccc(C(=O)Nc3ccc(C(=O)O)cc3OC(C)CC)c(OCCC(C)C)c2)ccc1C(=O)Nc1ccccc1OCc1ccccc1 (stereo not shown) [Compound 9]	complete loss in binding affinities	complete loss in binding affinities	complete loss in binding affinities	
CCC(C)COc1cc(-c2ccc(C(=O)Nc3ccc(C(=O)O)cc3OC(C)CC)c(OC(C)CC)c2)ccc1C(=O)Nc1ccc(C(=O)O)cc1OCc1ccccc1 (stereo not shown) [Compound 22]	selective affinity only to Bcl-xL			IC50 [1]: 650 nM
CCC(C)Oc1cc(C(=O)O)ccc1NC(=O)c1ccc(-c2ccc(C(=O)Nc3ccc(C(=O)O)cc3OC(C)CC)c(OC(C)C)c2)cc1OCCC(C)C (stereo not shown) [Compound 23]			selectively inhibited only Mcl-1	red to green fluorescence intensity ratio of JC-1 dye [4]: significantly reduced; cell growth inhibition ([5]; Mcl-1 knockdown PC3 cells): 18%; cell growth inhibition ([5]; control-transfected PC3 cells): 62%; cell growth inhibition ([5]; untransfected PC3 cells): 64%; induced caspase activity (in words) ([6]; Mcl-1 knockdown (siRNA) PC3 cells): basal level; caspase-9/-3 activity (in words) [6]: induced caspase-9/-3 activity in a dose-dependent manner; increase in caspase-3/-9 activity ([6]; control-transfected PC3 cells): up to 3 fold; increase in caspase-3/-9 activity ([6]; untransfected PC3 cells): up to 3 fold; IC50 [3]: 160 nM; disruption of the interaction of Bak with Mcl-1 [7]: selectively inhibited Mcl-1 over Bcl-xL and Bcl-2
CCOc1cc(C(=O)O)ccc1NC(=O)c1ccc(-c2ccc(C(=O)Nc3ccc(C(=O)O)cc3OCC(C)C)c(OCCc3ccccc3)c2)cc1OCCC(C)C [Compound 7]		affinity only for Bcl-2		
CCC(C)COc1cc(-c2ccc(C(=O)Nc3ccc(C(=O)O)cc3OC(C)CC)c(OCCC(C)C)c2)ccc1C(=O)Nc1ccc(C(=O)O)cc1OCc1ccccc1 (stereo not shown) [Compound 1, 3-(Benzyloxy)-4-(4′-((2-(sec-butoxy)-4-carboxyphenyl)carbamoyl)-3′-(isopentyloxy)-3-(2-methylbutoxy)-[1,1′-biphenyl]-4-carboxamido)benzoic acid]				IC50 [8]: 2870 to 9670 nM; disruption of the interaction of Bak with Bcl-2 [9]: disrupted the interaction; IC50 [1]: 140 to 230 nM; IC50 [2]: 140 to 230 nM; red to green fluorescence intensity ratio of JC-1 dye [4]: significantly reduced; IC50 ([5]; Homo sapiens, PC-3, PC3, MTT assay, read-out: IC50, cell growth): 2870 to 9670 nM; IC50 [10]: 2870 to 9670 nM; caspase-9/-3 activity (in words) [6]: induced caspase-9/-3 activity in a dose-dependent manner; IC50 [3]: 140 to 230 nM; disruption of the interaction of Bak with Mcl-1 [7]: disrupted the interaction; disruption of the interaction of Bak with Bcl-xL [11]: disrupted the interaction
CCC(C)COc1cc(-c2ccc(C(=O)Nc3ccc(C(=O)O)cc3OC(C)CC)cc2OCCC(C)C)ccc1C(=O)Nc1ccc(C(=O)O)cc1OCc1ccccc1 (stereo not shown) [Compound 12]	significantly lost affinity	significantly lost affinity	significantly lost affinity	

— US20250289780A1, “N,N'-DIPHENYL-4,4'-BIPHENYLDICARBOXAMIDE ANALOGS AND THEIR USE IN CANCER TREATMENT” (Board of Regents, The University of Texas System, priority 2024, published 2025)
